Results as given in patent publication US20240114902A1, “COMPOSITIONS AND METHODS FOR DETERRING OVIPOSITION BY FRUIT FLIES” (The United States of America, as represented by The …, priority 2022, published 2024).

Key:
[1] = system: Drosophila suzukii (SWD); assay: SWD laboratory two-choice oviposition bioassay on raspberries; type: in vivo; design: key to Behavioral activity (SWD oviposition group): Negative: “SWD negative” compounds (i.e., SWD oviposition was reduced); Neutral: “SWD neutral” compounds (i.e., no effect on oviposition); conditions: for Behavioral activity (SWD oviposition group): individual CFA component; for Behavioral activity (SWD oviposition group) / effect on SWD oviposition vs control / eggs oviposited among all treated raspberries: two-choice; for reduced SWD oviposition / SWD oviposition deterrence / effect on SWD oviposition vs control / eggs oviposited among all treated raspberries: individual compound; for reduced SWD oviposition: 0.2 mg dose; for SWD oviposition deterrence: 2 mg dose; for effect on SWD oviposition vs control / eggs oviposited among all treated raspberries: 20 mg dose
Method: Laboratory choice test 1 Oviposition bioassays were conducted at USDA-ARS in Hilo, Hawaii using a laboratory two-choice cage experimental set-up with organic raspberries purchased from a local grocery as an oviposition substrate. For all laboratory assays listed below, the receptacles of the raspberries were stuffed with cotton to prevent flies from ovipositing on the interior of the fruit as described previously in Cha D H et al. (2021, supra). The two-choice oviposition bioassay was conducted over 24 hours in screened cages (30 cm W×30 cm L×30 cm H; BugDorm-2120 Insect tent; shop.bugdorm.com) with 30 female and 10 male SWD (7-8 days old) released per cage. Each cage was provided with cotton moistened with water in a 20 mL deli cup and two 30 mL deli cups; one with two raspberries treated with CFA diluted in hexane and the other with two raspberries treated with hexane only. Each raspberry was surface-treated either with 200 μL of hexane or 200 μL of CFA in one of three doses (20, 2, or 0.2 mg CFA/200 μL hexane), placed into a fume hood for 10 minutes or until used in the bioassay. The deli cups with the treated berries were positioned in the center of the floor of the screened cage, 17 cm apart from each other. Female flies were allowed to oviposit on the surface of raspberries for 24 hours. At the conclusion of the bioassay, each 30 mL deli cup containing two raspberries was moved into a 600 mL deli cup with a mesh cap, held for 8 days (22.1±1.9° C., 71.7±3.1% RH, 16:8 L:D), when the number of larvae and pupae were counted. The experiment was replicated four times per treatment. Laboratory choice test 2 A series of bioassays were conducted in Hilo, Hawaii to identify key bioactive deterrent components of CFA for SWD using the same two-choice bioassay described above. […] Due to solubility differences, ethanol was used as control and for dilution of C16:0 and C18:0, while hexane was used as control and for dilution of the other six compounds tested. Based on the outcome of these bioassays, the eight free fatty acid components of CFA were grouped into two groups; “SWD negative” compounds (i.e., SWD oviposition was reduced) and “SWD neutral” compounds (i.e., no effect on oviposition), and tested whether the blend of “SWD negative” compounds had the same oviposition deterrence as the CFA at their equivalent concentrations as in CFA (see Table 2). The oviposition deterrence of the blend of “SWD negative” compounds was first compared to hexane at three different doses (20, 2 and 0.2 mg CFA equivalent/raspberry) and subsequently compared to CFA at 2 mg equivalent dose.

[2] = system: Bactrocera dorsalis (OFF); assay: OFF two-choice cage oviposition bioassay on guava juice-infused agar; type: in vivo; design: key to Activity (OFF oviposition group): Negative: “OFF negative” (i.e., oviposition reduced); Neutral: “OFF neutral” (i.e., no effect on oviposition); Positive: “OFF positive” (i.e., oviposition increased); conditions: for OFF oviposition reduction vs control agar: 20 mg/agar, 3 days; for Activity (OFF oviposition group): individual CFA component
Method: Evaluation of oviposition deterrence of CFA: OFF oviposition bioassays were conducted using laboratory two-choice cage experiments with guava juice-infused agar as an oviposition substrate. The agar plates were prepared by pouring 30 mL of boiled agar mixture [1000 mL distilled water, 500 mL guava juice (Deans Foods, El Paso, Texas, USA), 10 g agar, 0.6 g methylparaben, 6.7 mL 95% ethanol, and 3 mL acetic acid] into a 30 mL deli plastic cup to gel. The agar was then covered with a lid to avoid desiccation. The two-choice oviposition bioassay was conducted in screened cages using 20 mated OFF females per cage (12-18 day-old; Jang E B et al., 1997, “Attraction of female oriental fruit fly, Bactrocera dorsalis, to volatile semiochemicals from leaves and extracts of a non-host plant, Panax (Polyscias guilfoylei) in laboratory and olfactometer assays,” J. Chem. Ecol. 23:1389-1401) over 3 days. Each cage was provided with a ball of water-saturated cotton, sugar, and protein hydrolysate in separate 30 mL deli cups and two guava juice agar plates-one treated with CFA diluted in hexane and the other treated with the hexane control. The agar plates were surface-treated either with 200 μL of hexane or 200 μL of CFA in one of 4 doses tested (20, 2, 0.2, and 0.02 mg/200 μL of hexane), placed into a fume hood for 10 minutes prior to use in bioassays, and positioned upside-down (i.e., treated side down) on the center of the outside top of the screened cage 17 cm apart from each other (i.e., one each of control and CFA treated), allowing female flies to oviposit on guava juice agar from the bottom through the cage screen. After three days, OFF eggs in the guava agar were gently separated from the agar in water and the number of eggs were individually counted (up to 100 eggs) or estimated volumetrically at 1 mL OFF eggs=20,000 eggs (Stephanie Gayle personal communication). The experiment was replicated six times per treatment. Determination of bioactive oviposition deterrent components from CFA: A series of bioassays was conducted to identify key deterrent components of CFA for OFF using the same two-choice bioassay design described above. […] Ethanol was used as control and for preparing dilutions of C16:0 and C18:0. Hexane was used as control and for dilutions of the other six compounds tested. Based on the outcome of these bioassays, the eight free fatty acid components were assigned to “OFF negative” (i.e., oviposition reduced), “OFF neutral” (i.e., no effect on oviposition), and “OFF positive” (i.e., oviposition increased) compound groups. Using these groupings, four different blends were formulated (indicated in Table 1), composed at the equivalent ratios and concentrations of each component found in CFA (Zhu J J et al., 2018, supra), to determine key bioactive CFA components in terms of oviposition deterrence on OFF. The approach involved testing the bioactivity of the OFF negative-component blend (4c blend) for oviposition deterrence at three different doses (2, 0.2, and 0.02 mg CFA equivalent/agar), first comparing with hexane control, then with CFA at respective equivalent doses. As the 4c blend was not as effective as CFA, a “OFF negative+OFF neutral” component blend (6c blend) was then formulated, and its effect compared with CFA at 2 and 0.2 mg CFA equivalent/agar. Two subtraction blends with one of the two OFF neutral components removed from the 6c blend (5c-i and 5c-ii blends) were formulated and compared with the 6c blend at 2 and 0.2 mg CFA equivalent/agar. The experiment was replicated four to six times per treatment.

Row | SMILES | Behavioral activity (SWD oviposition group) [1] | reduced SWD oviposition [1] | SWD oviposition deterrence [1] | effect on SWD oviposition vs control [1] | eggs oviposited among all treated raspberries [1] | OFF oviposition reduction vs control agar [2] [%] | Activity (OFF oviposition group) [2] | OFF oviposition deterrence at lower dose ([2]; individual compound, 2 mg dose)
1 | CCCCCCCCCC(=O)O [C10:0, capric acid] | Negative | not detected | maintained oviposition deterrence | almost completely inhibited oviposition | one | 92 | Negative | 
2 | CCCCCCCC(=O)O [C8:0, caprylic acid] | Negative | not detected | maintained oviposition deterrence | almost completely inhibited oviposition | zero | 95 | Negative | maintained OFF oviposition deterrence
